Measured values reported in EP3521435A1, “A HIGH STRINGENCY SELECTION SYSTEM FOR PROTEIN EXPRESSION IN PROLINE-AUXOTROPHIC CELLS” (Bayer AG, priority 2018, dated 2019).

Test system: CHO-K1 cells
Assay: Cell viability post-transfection of transfected cell populations under selection conditions
Format: cell-based, Chinese hamster
Conditions: for recovery of cultures: 0.8 mM DHP
Procedure: To efficiently test the impact of different procedures on improving selection stringency, experimental testing in stable cell populations was performed. As test molecules, enhanced green fluorescent protein (GFP) as well as a human IgG1 were chosen. CHO-K1 cells adapted to growth in suspension in defined medium were obtained from SAFC and cultivated in EX-CELL CD CHO Fusion medium (SAFC 14365C). Custom-made EX-CELL CD CHO Fusion medium without L-Proline (Pro) and without L-Ornithine (Orn) ("proline-free medium") was obtained from SAFC. The expression vector system was based on modified versions of "CET 1019 AS-puro-SceI" and "CET 1019 AD-puro-SceI" for GFP and human IgG1, respectively, from Merck-Millipore, containing the Puromycin selection marker (Puromycin N-acetyl-transferase) known to exert a high selection stringency. To minimize variations in cell populations derived from using different transfections or different vectors, the first series of experiments were conducted using vectors into which a P5CS expression cassette was cloned upstream of a UCOE element, in addition to the Puromycin selection marker present downstream of a gene of interest. This way, it was possible to pool different transfections using the same vector to obtain a common starting point, and split the mixture according to different selection conditions, minimizing any variations that are not due to selection conditions themselves. Expression of long and short isoform of murine P5CS (Protein: Delta-1-pyrroline-5-carboxylate synthase; Gene: Aldh18a1; UniProtKB accession number: Q9Z110-1 & Q9Z110-2) was driven by a SV40 promoter. A SV40 polyadenylation sequence was used at the 3' end of the gene. More details can be found in Table 1. Typically, CHO cells were cultivated in EX-CELL CD CHO Fusion medium containing 6 mM GlutaMAX (Thermo Fisher, 35050-38) ("CD-Fusion medium") at 37 °C with 5% CO2. Cells were grown to logarithmic phase under shaking conditions for transfections. 1e7 cells/cuvette were transfected using nucleofection (Amaxa Nucleofector II, following the manufacturer's recommendations) with 5 µg of linearized DNA. After transfection, cells were taken up in 1 ml medium and transferred into 1 well of a 6 well microtiter plate (MTP) already containing 1 ml medium. The cells were incubated for 24 h without shaking, after which 9 ml medium were added and cells were washed (either in standard or proline-free medium). Multiple transfections were pooled, if applicable. Cells were adjusted to 2e5 viable cells/ml and 10 ml were transferred to T-25 flasks. Reference cell populations were selected using 10 µg/ml Puromycin in CD-Fusion medium. For P5CS-based selection, EX-CELL CD CHO Fusion medium (custom-made, SAFC) containing 6 mM GlutaMAX without proline and without ornithine was used ("proline-free" or "CD-Fusion w/o Pro" medium), with or without additional selection pressure.
Cell viability of the different populations was monitored over time. As soon as cell populations appeared to recover from selection pressure, cells were transferred to Shake Flask or TubeSpins for expansion in suspension under shaking conditions. Subsequently, stable cell populations transfected with IgG were seeded at 2e5 viable cells/ml for batch fermentation without selection pressure (i.e. standard CD-Fusion medium containing proline and no other selective agents). The cells were cultivated for 5-10 days, viable cell densities and productivity were monitored over time. IgG titers were determined using Poros A-HPLC method. Typically, final batch titers were recorded at a time point at which majority of cultures had around 70% viability. Stable cell populations transfected with GFP vector were subjected to analysis by flow cytometry using Guava easyCyte 8HT Benchtop Flow Cytometer (Millipore). 250 µl of cell culture were transferred to 96 MTP and washed with PBS. Dead cells were excluded from analysis using propidium iodide (PI). […]

[1] = MOCK, CD Fusion + 10 µg/ml Puromycin
[2] = MOCK, CD-Fusion w/o Pro + 10 µg/ml Puromycin
[3] = MOCK, CD-Fusion w/o Pro + 0.25 mM Pro + 10 µg/ml Puromycin
[4] = pJF1555, CD-Fusion w/o Pro + 0.25 mM Pro + 10 µg/ml Puromycin
[5] = pJF1576, CD-Fusion + 10 µg/ml Puromycin
[6] = pJF2053, CD-Fusion + 10 µg/ml Puromycin
[7] = pJF1555, CD-Fusion w/o Pro + 0.2 mM DHP
[8] = pJF1576, CD-Fusion w/o Pro + 0.2 mM DHP
[9] = pJF1576, CD-Fusion w/o Pro + 0.4 mM DHP

SMILES: COc1ccc(C[C@H](N)C(=O)N[C@H]2[C@@H](O)[C@H](n3cnc4c(N(C)C)ncnc43)O[C@@H]2CO)cc1 [Puromycin]
- Viability on day 12 post-transfection [1]: 25%
- Viability on day 13 post-transfection [1]: 9%
- Viability on day 14 post-transfection [1]: 19%
- Viability on day 13 post-transfection [2]: 14%
- Viability on day 14 post-transfection [2]: 23%
- Viability on day 12 post-transfection [3]: 23%
- Viability on day 13 post-transfection [3]: 13%
- Viability on day 14 post-transfection [3]: 20%
- Viability on day 12 post-transfection (Table 8, pJF1555, CD-Fusion w/o Pro + 0.25 mM Pro + 10 µg/ml Puromycin): 83%
- Viability on day 12 post-transfection (Table 12, pJF1555, CD-Fusion + 10 µg/ml Puromycin): 86%
- Viability on day 12 post-transfection (Table 12, pJF1555, CD-Fusion w/o Pro + 0.25 mM Pro + 10 µg/ml Puromycin): 63%
- Viability on day 14 post-transfection (pJF1555, CD Fusion + 10 µg/ml Puromycin): 75%
- Viability on day 19 post-transfection (pJF1555, CD-Fusion + 10 µg/ml Puromycin): 49%
- Viability on day 14 post-transfection (pJF1555, CD-Fusion w/o Pro + 10 µg/ml Puromycin): 79%
- Viability on day 14 post-transfection [4]: 79%
- Viability on day 19 post-transfection [4]: 48%
- Viability on day 13 post-transfection (pJF1556, CD Fusion + 10 µg/ml Puromycin): 81%
- Viability on day 13 post-transfection (pJF1556, CD-Fusion w/o Pro + 10 µg/ml Puromycin): 92%
- Viability on day 13 post-transfection (pJF1556, CD-Fusion w/o Pro + 0.25 mM Pro + 10 µg/ml Puromycin): 90%
- Viability on day 12 post-transfection [5]: 78%
- Viability on day 21 post-transfection [5]: 98.4%
- Viability on day 12 post-transfection (pJF1576, CD-Fusion w/o Pro + 0.25 mM Pro + 10 µg/ml Puromycin): 79%
- Viability on day 21 post-transfection (pJF1579, CD-Fusion + 10 µg/ml Puromycin): 98.8%
- Viability on day 15 post-transfection [6]: 86.6%
- Viability on day 22 post-transfection [6]: 98.6%
- Viability on day 22 post-transfection (pJF2222, CD-Fusion + 10 µg/ml Puromycin): 98.7%

SMILES: O=C(O)[C@@H]1C=CCN1 [DHP, 3,4-Dehydro-L-Proline]
- recovery of cultures (pJF1555, even after prolonged incubations): did not recover
- recovery of cultures (pJF1576): did not recover
- Viability on day 12 post-transfection (pJF1555, CD-Fusion w/o Pro + 0.05 mM DHP): 83%
- Viability on day 12 post-transfection (pJF1555, CD-Fusion w/o Pro + 0.1 mM DHP): 53%
- Viability on day 12 post-transfection [7]: 40%
- Viability on day 19 post-transfection [7]: 27%
- Viability on day 12 post-transfection (pJF1555, CD-Fusion w/o Pro + 0.4 mM DHP): 20%
- Viability on day 12 post-transfection (pJF1555, CD-Fusion w/o Pro + 0.8 mM DHP): 13%
- Viability on day 19 post-transfection (pJF1555, CD-Fusion w/o Pro + 1 mM DHP): 7%
- Viability on day 19 post-transfection (pJF1555, CD-Fusion w/o Pro + 5 mM DHP): 6%
- Viability on day 19 post-transfection (pJF1555, CD-Fusion w/o Pro + 10 mM DHP): 7%
- DHP concentration at which cultures did not recover (pJF1555, proline-free medium, even after extension of cultivation): ≥ 1 mM
- Viability on day 12 post-transfection (pJF1576, CD-Fusion w/o Pro + 0.05 mM DHP): 91%
- Viability on day 12 post-transfection (pJF1576, CD-Fusion w/o Pro + 0.1 mM DHP): 74%
- Viability on day 12 post-transfection [8]: 49%
- Viability on day 21 post-transfection [8]: 87.4%
- Viability on day 12 post-transfection [9]: 28%
- Viability on day 21 post-transfection [9]: 65.3%
- Viability on day 21 post-transfection (pJF1576, CD-Fusion w/o Pro + 0.5 mM DHP): 42.8%
- Viability on day 21 post-transfection (pJF1576, CD-Fusion w/o Pro + 0.6 mM DHP): 35.7%
- Viability on day 12 post-transfection (pJF1576, CD-Fusion w/o Pro + 0.8 mM DHP): 23%
- Viability on day 21 post-transfection (pJF1969, CD-Fusion w/o Pro + 0.2 mM DHP): 26.5%
- Viability on day 21 post-transfection (pJF1969, CD-Fusion w/o Pro + 0.4 mM DHP): 22.9%
- Viability on day 21 post-transfection (pJF1969, CD-Fusion w/o Pro + 0.5 mM DHP): 23.3%
- Viability on day 21 post-transfection (pJF1969, CD-Fusion w/o Pro + 0.6 mM DHP): 25.9%
- Viability on day 21 post-transfection (pJF1970, CD-Fusion w/o Pro + 0.2 mM DHP): 18.2%
- Viability on day 21 post-transfection (pJF1970, CD-Fusion w/o Pro + 0.4 mM DHP): 21.4%
- Viability on day 21 post-transfection (pJF1970, CD-Fusion w/o Pro + 0.5 mM DHP): 18.3%
- Viability on day 21 post-transfection (pJF1970, CD-Fusion w/o Pro + 0.6 mM DHP): 18.2%
- Viability on day 22 post-transfection (pJF2055, CD-Fusion w/o Pro + 0.02 mM DHP): 99.5%
- Viability on day 22 post-transfection (pJF2055, CD-Fusion w/o Pro + 0.03 mM DHP): 99.2%
- Viability on day 22 post-transfection (pJF2055, CD-Fusion w/o Pro + 0.04 mM DHP): 99.2%
- Viability on day 22 post-transfection (pJF2055, CD-Fusion w/o Pro + 0.06 mM DHP): 83.3%
- Viability on day 22 post-transfection (pJF2055, CD-Fusion w/o Pro + 0.07 mM DHP): 65.3%
- Viability on day 22 post-transfection (pJF2055, CD-Fusion w/o Pro + 0.08 mM DHP): 36.3%
- Viability on day 22 post-transfection (pJF2303, CD-Fusion w/o Pro + 0.02 mM DHP): 99.3%
- Viability on day 22 post-transfection (pJF2303, CD-Fusion w/o Pro + 0.04 mM DHP): 99.6%
- Viability on day 22 post-transfection (pJF2303, CD-Fusion w/o Pro + 0.06 mM DHP): 99.4%
- Viability on day 22 post-transfection (pJF2303, CD-Fusion w/o Pro + 0.08 mM DHP): 99.2%
- Viability on day 22 post-transfection (pJF2303, CD-Fusion w/o Pro + 0.2 mM DHP): 98.4%
- Viability on day 22 post-transfection (pJF2303, CD-Fusion w/o Pro + 0.3 mM DHP): 98.2%
- Viability on day 22 post-transfection (pJF2303, CD-Fusion w/o Pro + 0.4 mM DHP): 98.5%
- Viability on day 22 post-transfection (pJF2303, CD-Fusion w/o Pro + 0.5 mM DHP): 99.1%
- Viability on day 15 post-transfection (pJF2460, CD-Fusion w/o Pro + 0.01 mM DHP): 73.2%
- Viability on day 15 post-transfection (pJF2460, CD-Fusion w/o Pro + 0.03 mM DHP): 44.1%
- Viability on day 15 post-transfection (pJF2460, CD-Fusion w/o Pro + 0.04 mM DHP): 30.6%
- Viability on day 15 post-transfection (pJF2460, CD-Fusion w/o Pro + 0.05 mM DHP): 22.8%
